Measurements reported in patent US20030044400A1, “Composition and method for treating cells” (priority 2001, published 2003).

Experiments:
[1] = system: P388 leukemia; assay: P388 Leukemia Model; type: in vivo; details: P388-bearing DBA/2 mice; for Survivors: 10 per group
Protocol: All mice used were kept according to NIH standard regulation. The DBA/2 mice were divided into 4 groups, 10 mice in each group. The P388 innoculum tumor was induced by intraperitoneal injection of 10^6 cells per 0.1 ml innoculum. All doses were made up to a volume of 0.5 ml. Treatment was intraperitoneal injection of 0.5 ml saline (control), 0.002 ml of 10 mg/ml Fetuin (Group I), 0.02 ml (Group II) and 0.2 ml (Group III) for 10 days following tumor transplant. Mortalities were recorded daily. Results are expressed as the percent increase in life span (ILS) in Table 2.
ILS=100×Median Life Span Treated−Median Life Span Control

[2] = system: immune system (splenic T- and B-cells, response to SRBC); details: mouse, in vivo
Protocol: The Balb/C mice weighed 20-30 g with six to eight weeks of age and divided equally between male and female are used. Fetuin is administered IV or IP to each group of six animals either a single dose or multiple doses ranging from 0.05 mg to 5 mg per 20 g body weight. The volume of each injection is 0.2 ml. Phosphate buffered saline is used as the control and dilution vehicle.
Flow cytometric characterization of splenic T- and B-cells in Fetuin treated mice: T cells of mice can be recognized by the presence of Thy 1.2 or Thy 1.1 (depending on the genotype of the mouse), receptors isolated on the surface of peripheral T cells (lymph node, spleen and blood) as well as thymic epithelia.

[3] = system: PC-3 cells; assay: Fetuin-induced apoptosis, Hoechst staining confirmed by MTS assay; type: cell-based, Human
Protocol: (§1) The purified fetuin was tested on various cancer cell lines. […] The DNA condensation and breakage of nuclei which are the characteristics for apoptosis were observed by staining the cell with Hoechst dye at 0.1 ug/ml.
(§2) Various concentrations of Zn-charged fetuin prepared as described were incubated with cell lines for 6 hr. Percent of cell under apoptosis was determined by Hoechst staining and confirmed by MTS assay. The concentration of Zn-charged fetuin for the induction of 50% of cells under apoptosis (LD50) was determined. Each data represents the average of three assays.

[4] = system: CCD 18 Co (normal colon fibroblast); assay: as above; type: cell-based, Human
Protocol: as §1, §2

[5] = system: Hep G2 cells; assay: as above; type: cell-based, Human
Protocol: as §1, §2

[6] = system: Colo 205 cells; assay: as above; type: cell-based, Human
Protocol: as §1, §2

[7] = system: Calu-1 cells; assay: as above; type: cell-based, Human
Protocol: as §1, §2

[8] = system: WI 38 (normal lung fibroblast); assay: as above; type: cell-based, Human
Protocol: as §1, §2

[9] = system: HL-60 cells; assay: as above; type: cell-based, Human
Protocol: as §1, §2

[10] = system: MCF-7 cells; assay: as above; type: cell-based, Human
Protocol: as §1, §2

[11] = system: CCD 39 Lu (normal lung fibroblast); assay: as above; type: cell-based, Human
Protocol: as §1, §2

[12] = Zn-charged fetuin, 6 hr, average of three assays
[13] = purified fetuin, Hoechst dye 0.1 ug/ml

Substance: Fetuin: Fetal bovine fetuin purified from fetal bovine serum by modified Spiro method; 60 Kd glycoprotein, homologue of alpha 2-HS glycoprotein
- Survivors ([1]; 0.002 ml of 10 mg/ml Fetuin ip for 10 days, bracket (31) = day): 1 (31)
- Survivors ([1]; 0.02 ml of 10 mg/ml Fetuin ip for 10 days, bracket (29) = day): 1 (29)
- Survivors ([1]; 0.2 ml of 10 mg/ml Fetuin ip for 10 days (highest dose), bracket (58) = day, listed as Fetal fetuin): 8
- (ILS) Increased Life Span ([1]; 0.002 ml of 10 mg/ml Fetuin ip for 10 days): 29%
- (ILS) Increased Life Span ([1]; 0.02 ml of 10 mg/ml Fetuin ip for 10 days): 17.2%
- (ILS) Increased Life Span ([1]; 0.2 ml of 10 mg/ml Fetuin ip for 10 days (highest dose)): 141%
- cell surface density of s-Ig on the B-cells [2]: no significant differences
- fraction of lymphocytes which were B-cells (s-Ig+) [2]: no differences between treatment groups
- fraction of splenic lymphocyte that were T-cells [2]: remained constant
- mean level of expression of Thy 1.2 [2]: did not differ significantly
- LD50 of Fetuin-induced Apoptosis [3, 12]: 1 µM
- induction of apoptosis [3, 13]: strongly induced apoptosis
- LD50 of Fetuin-induced Apoptosis ([4]; CCD 18 Co, Zn-charged fetuin, 6 hr, average of three assays): >100 µM
- induction of apoptosis ([4]; CCD18Co, purified fetuin, Hoechst dye 0.1 ug/ml): did not induce apoptosis
- LD50 of Fetuin-induced Apoptosis ([5]; Hep G2, Zn-charged fetuin, 6 hr, average of three assays): 20 µM
- induction of apoptosis ([5]; HepG2, purified fetuin, Hoechst dye 0.1 ug/ml): strongly induced apoptosis
- LD50 of Fetuin-induced Apoptosis [6, 12]: 5 µM
- induction of apoptosis [6, 13]: strongly induced apoptosis
- LD50 of Fetuin-induced Apoptosis [7, 12]: 4 µM
- induction of apoptosis [7, 13]: strongly induced apoptosis
- LD50 of Fetuin-induced Apoptosis ([8]; WI 38, Zn-charged fetuin, 6 hr, average of three assays): >100 µM
- induction of apoptosis ([8]; WI-38, purified fetuin, Hoechst dye 0.1 ug/ml): did not induce apoptosis
- LD50 of Fetuin-induced Apoptosis ([9]; HL-60, Zn-charged fetuin, 6 hr, average of three assays): 5 µM
- induction of apoptosis ([9]; HL-60, purified fetuin, Hoechst dye 0.1 ug/ml): strongly induced apoptosis
- apoptosis of HL-60 cells ([9]; at 1 uM): induce apoptosis
- LD50 of Fetuin-induced Apoptosis [10, 12]: 8 µM
- induction of apoptosis [10, 13]: strongly induced apoptosis
- LD50 of Fetuin-induced Apoptosis ([11]; CCD 39 Lu, Zn-charged fetuin, 6 hr, average of three assays): >100 µM
- induction of apoptosis ([11]; CCD39Lu, purified fetuin, Hoechst dye 0.1 ug/ml): did not induce apoptosis
